In US8858962B2, “Adjuvant or pharmaceutical preparation for transdermal or transmucosal administration” (priority 2005, dated 2014):

Tests used:
[1] = system: MHC Class II molecules; assay: Intensity of expression of MHC Class II molecules by lymph cells after transdermal adjuvant (flow cytometry, FIG. 1); type: in vivo, BALB/c mice; settings: for lymph cell count: 50 uL of acetone solution (50%) on shaved abdomen, lymph node removed 5 days later
Experimental: On the other hand, for a group for which an antigen hapten was used in combination, 50 uL of a 1:1 mixture of an FITC solution (5 mg/mL in acetone) and a solution of the adjuvant was transdermally administered to the abdomen. 5 days later, lymph node (cervix, groin) was removed, and the intensity of expression of MHC Class II molecules by lymph cells was analyzed by flow cytometry (FIG. 1).

[2] = system: OVA-specific IgG antibody; assay: OVA-specific IgG antibody titer by ELISA; OVA intradermal plus adjuvant transdermal; type: in vivo, BALB/c mice; settings: for Antibody titer (×10^4): OVA 10 ug/head intradermal, 25 uL adjuvant transdermal, dosing at 0, 2, 4 W, 5 W data; for antigen IgG immune response: intradermal ovalbumin plus transdermal adjuvant on intact skin
Experimental: OVA was dissolved in physiological saline and adjusted to give 10 ug/head, and for an OVA-only group 25 uL of the OVA aqueous solution was intradermally administered. For groups in which there was combined use with various types of adjuvant, immediately after the OVA solution was intradermally administered, 25 uL of the adjuvant solution was transdermally administered (coated) via the skin surface of the abdomen. Administration was carried out at 0, 2, and 4 W, blood was collected at 2, 4, and 5 W, and the OVA-specific IgG antibody titer after 2, 4, and 5 W was measured by ELISA.

[3] = system: BALB/c mice; assay: Skin irritation score, intradermal vs transdermal administration; type: in vivo
[4] = system: OVA-specific IgG antibody; assay: OVA-specific IgG antibody titer; microneedles coated with antigen emulsion (FIG. 5); type: in vivo, BALB/c mice; settings: OVA 0.1 mg/patch; microneedles coated with emulsion 1:1:0.01 (Tween 80); punctured 2 hours
Experimental: Furthermore, for microneedle groups (OVA+lauryl alcohol or oleyl alcohol) microneedle needles were coated with an emulsion [antigen solution:olive oil or lauryl alcohol:surfactant (Tween 80)=1:1:0.01], and puncturing was carried out for 2 hours. Administering was carried out at 0, 2, and 4 W, blood was collected at 2, 4, and 5 W, and the OVA-specific IgG antibody titer was measured by ELISA.

[5] = system: OVA-specific IgG antibody; assay: OVA-specific IgG antibody titer; microneedles coated with antigen emulsion (FIG. 4); type: in vivo, hairless rats; settings: OVA 2 mg/patch; microneedles coated with emulsion antigen:oil or alcohol:Tween 80 1:1:0.01; punctured 2 hours
Experimental: OVA was adjusted to give 2 mg/patch, and for a microneedle group (OVA+5% polyvinyl alcohol), the abdomen of 7 to 8 W male hairless rats was punctured for 2 hours with a needle portion of microneedles coated with antigen and 5% polyvinyl alcohol liquid [mixed at antigen solution:10% polyvinyl alcohol=1:1]. Furthermore, for microneedle groups (OVA+olive oil) or (OVA+lauryl alcohol), microneedle needles were coated with an emulsion [antigen solution:olive oil or lauryl alcohol:surfactant (Tween 80)=1:1:0.01], and puncturing was carried out for 2 hours. Administration was carried out at 0, 2, and 4 W, blood was collected at 2, 4, and 5 W, and the OVA-specific IgG antibody titer was measured by ELISA.

[6] = system: OVA; assay: Effect of LA adjuvant in administration via oral mucous membrane, antibody titer (FIG. 7); type: in vivo, BALB/c mice; settings: OVA 2500 ug/head; antigen solution:LA:Tween 80 8:2:0.05 and 5:5:0.05; blood after 2 weeks
[7] = system: OVA-specific IgG antibody; assay: OVA-specific IgG antibody titer; OVA/LA emulsion with microneedle, skin abrasion or iontophoresis (FIG. 2); type: in vivo, BALB/c mice; settings: OVA 100 ug/head; OVA solution:LA:Tween 20 1:1:0.01; IP, MN, Skin Prep modes; 4 W data
Experimental: OVA (ovalbumin antigen) was adjusted to give 100 ug/head, for an OVA-only group an OVA aqueous solution was applied, and for a group in which lauryl alcohol (LA) was used in combination, an emulsified solution formed by mixing the OVA solution, LA and Tween 20 (emulsifier) at 1:1:0.01 was used. For the microneedle group, the pre-shaved abdomen skin was punctured with 1 cm^2 of microneedles (needle length about 200 um, 400 needles/cm^2), and immediately after this 50 uL of the above-mentioned emulsion solution was applied. For the skin abrasion treatment group, instead of the microneedles, the skin was abraded 5 times with 3M RED Dot™ 2236 and 50 uL of the emulsion solution was applied. For the iontophoresis group, after the shaven abdomen skin was coated with 50 uL of the emulsion solution, an iontophoresis preparation (nonwoven cloth preparation: Ag, Ag/AgCl 1 cm^2) formed by impregnating a nonwoven cloth with physiological saline was affixed to the coated site, and direct current (0.4 mA/patch) was applied for 1 hour. Administration was carried out at 0, 2, and 4 W, blood was collected at 2, 4, and 5 W, and the OVA-specific IgG antibody titer was measured by ELISA.

[8] = system: OVA-specific IgG antibody; assay: OVA-specific IgG antibody titer; antigen-coated microneedles with LA applied in advance (FIG. 3); type: in vivo, hairless rats; settings: OVA 2 mg/patch on coated microneedles, punctured 2 hours
Experimental: OVA was adjusted to give 2 mg/patch, a needle portion of microneedles was coated with the antigen and 5% polyvinyl alcohol liquid, and for a microneedle group the abdomen of 7 to 8 W male hairless rats was punctured for 2 hours with physiological saline dropped onto the skin side. For a microneedle+lauryl alcohol group, LA was applied in advance, physiological saline was dropped onto the skin side, and it was punctured for 2 hours with microneedle needles coated with the antigen and 5% polyvinyl alcohol liquid. Administration was carried out at 0, 2, and 4 W, blood was collected at 2, 4, and 5 W, and the OVA-specific IgG antibody titer was measured by ELISA.

Compound | lymph cell count [1] | Antibody titer (×10^4) [2] | skin irritation on transdermal administration [3] | further results
CC(C)CCCCCCCCCCCCCCCO [Isostearyl alcohol, isostearyl alcohol] | remarkable increase | 1.3 ×10^4 | did not cause skin irritation | –
CCCCCCCCCCCCO [Lauryl alcohol, lauryl alcohol] | remarkable increase | 2.1 ×10^4 | did not cause skin irritation | adjuvant effect in transdermal administration ([1]; comparison among adjuvants): most outstanding adjuvant effect; OVA-specific IgG antibody titer [4]: increased remarkably; OVA-specific IgG antibody titer [5]: increased remarkably; antigen IgG immune response [2]: highest immune response; antibody titer, oral mucous membrane administration [6]: increased in response to the LA concentration; OVA-specific IgG antibody titer [7]: significant increase; OVA-specific IgG antibody titer [8]: increased,remarkably
CCCCCCCCCCC(CO)CCCCCCCC (centres unmarked) [Octyldodecanol, octyldodecanol] | – | 0.6 ×10^4 | did not cause skin irritation | –
CCCCCCCC/C=C\CCCCCCCCO [Oleyl alcohol, oleyl alcohol] | remarkable increase | 2.1 ×10^4 | did not cause skin irritation | OVA-specific IgG antibody titer [4]: increased remarkably; antigen IgG immune response [2]: highest immune response
CCCCCCCC/C=C\CCCCCCCC(=O)O [oleic acid] | remarkable increase | – | – | –
polyethylene glycol monolaurate | – | 0.9 ×10^4 | did not cause skin irritation | –
sorbitan monolaurate | remarkable increase | – | did not cause skin irritation | –
sorbitan monooleate | remarkable increase | – | – | –
